Measured values: US20240103005A1, “N-ACRYLOYLINDOLES AND METHODS OF USE” (The University of Hong Kong, priority 2022, published 2024)
“Also recorded” adds a separate entry of the source.

Columns and labels:
[1] = Selectivity for reacting with Cys over other amino acids (LC-MS); format: physicochemical; conditions: compound 10 μM, amino acid 30 μM (3 equiv.), 30 min, PBS/MeOH 4:1
Method: Selectivity of NAI for Reacting with Cys Over Other Amino Acids
Stock solution of NAIA-4 and NAIA-5, respectively, in DMSO was diluted by PBS/MeOH solution mixture (4:1, v/v; 500 μL), reaching final concentration of 10 μM. Stock solution of amino acid in DMSO was then freshly prepared, and added to the compound solution at final concentration of 30 μM. The solution mixture was incubated at room temperature for 30 min. After that, an aliquot of the reaction mixture (10 μL) was sent for LC-MS analysis. Selected ion chromatograms, with m/z=325 corresponding to [NAIA-4+H]^+ or [NAIA-5+H]^+, were extracted and analyzed by integrating the area under curve.
As fast-reacting probes are often susceptible to hydrolysis, we sought to investigate the aqueous stability of NAIA-C5 amide. […] Taking the excellent reaction kinetics and a mere 14% degradation in 30 min into account, NAIA-C5 amide was considered to be a useful tool in cysteine profiling (FIG. 17C and FIG. 17F).

HepG2 cells [2] = assay: Confocal fluorescence imaging of HepG2 cells labeled with probe for different time intervals; format: cell-based; conditions: 10 μM; for cellular fluorescence intensity: 15, 30 and 60 min
Method: HepG2 Cells Labeled by NAIA-5 or IAA with Different Time Intervals for Imaging Experiments
HepG2 cells were plated on a 8-well Nunc Lab-Tek chambered slide system (ThermoFisher Scientific; 177402) and allowed to grow in complete medium at 37° C. with 5% CO2 to ca. 70% confluency. The cells were incubated with NAIA-5 and IAA (10 μM) respectively in complete medium for the indicated time interval, washed with PBS and then fixed by 4% paraformaldehyde in PBS at room temperature for 15 min. After washing with PBS, the fixed cells were permeabilized by PBS with 0.5 vol % Triton X-100 at room temperature for 30 min. The cells were then washed and incubated with a master mix solution containing CuSO4, THTPA, azide-fluor 545 and sodium ascorbate at final concentrations of 100, 500, 20 and 5000 μM respectively. After incubation in dark at room temperature for 1 h, the cells were washed with PBS and stained by Hoechst 33342 in PBS (final concentration=8.2 μM) at room temperature for 15 min. The cells were washed thrice with PBS and then imaged by confocal fluorescence microscopy. Hoechst 33342 was excited with a 405 nm diode laser, and emission was collected on a META detector between 371 and 507 nm. Fluor 545 was excited by a 561 nm diode laser and emission was collected on a META detector between 576 and 683 nm. Image analysis was performed by use of ImageJ. A region of interest (ROI) was created around individual cell, and cellular fluorescence intensity was measured. The reported average cellular fluorescence intensity was determined by averaging the measured intensity from 30 different cells from 3 different biological replicates/group. Statistical analyses were performed with a two-tailed Student's t-test (MS Excel).
(§1) Confocal fluorescence microscopy imaging was performed with a Zeiss laser scanning microscope 880 with a 20× water-immersion objective lens using ZEN 2.3 (Black Version) software (Carl Zeiss) with 3× magnification zoom-in. Hoechst 33342 was excited with a 405 nm diode laser, and emission was collected on a META detector between 371 and 507 nm. Fluor 545 was excited by a 561 nm diode laser and emission was collected on a META detector between 576 and 683 nm. Image analysis was performed by use of ImageJ. A region of interest (ROI) was created around individual cell, and cellular fluorescence intensity was measured. The reported average cellular fluorescence intensity was determined by averaging the measured intensity from 30 different cells from 3 different biological replicates/group. Statistical analyses were performed with a two-tailed Student's t-test (MS Excel).
To examine the underlying mechanism of better cysteine labeling in live cells by NAIA, we conducted confocal fluorescence imaging experiments on HepG2 cells treated with NAIA-5 and IAA respectively (both at 10 μM). After treatment for the indicated time intervals, the cells were washed with PBS, fixed by 4% paraformaldehyde in PBS and reacted with azide-fluor 545 through CuAAC. The stained cells were then washed with PBS and imaged by confocal fluorescence microscopy. […] In view of the fast and better labeling of reactive cysteines in live cells, we anticipate that NAIAs can be good candidates for capturing cysteines with dynamic changes in reactivity/modifications in cells. The ability of NAIAs to work nicely with confocal fluorescence microscopic imaging also illustrates their potential application as imaging probes for cellular cysteine reactivity. […]

HepG2 cells [3] = assay: Imaging a decrease in free thiol level in HepG2 cells under oxidative stress; format: cell-based; conditions: 10 min; for fluorescence from labeling of free thiols, solvent control cells: 50 μM, same imaging parameters; for change in cellular fluorescence intensity upon H2O2 pretreatment: H2O2 0.5 or 1 mM 15 min, probe 50 μM
Method: Imaging a Decrease in Free Thiol Level in HepG2 Cells Under Oxidative Stress by NAIA-5 or IAA
HepG2 cells were plated on a 8-well Nunc Lab-Tek chambered slide system and allowed to grow in complete medium at 37° C. with 5% CO2 to ca. 70% confluency. The cells were then pretreated with solvent vehicles, H2O2 (0.5 or 1 mM) or H2O2 (1 mM)+NAC (5 mM) in complete medium for 15 min at 37° C. The cells were washed with PBS and incubated with NAIA-5 or IAA (50 μM) in complete medium for 10 min at 37° C. After that, the cells were washed with PBS and fixed by 4% paraformaldehyde in PBS at room temperature for 15 min. The fixed cells were washed with PBS, permeabilized by PBS with 0.5 vol % Triton X-100 at room temperature for 30 min, washed again with PBS and incubated with a master mix solution containing CuSO4, THTPA, azide-fluor 545 and sodium ascorbate at final concentrations of 100, 500, 20 and 5000 μM respectively. After incubation in dark at room temperature for 1 h, the cells were washed with PBS and stained by Hoechst 33342 in PBS (final concentration=8.2 μM) at room temperature for 15 min. The cells were washed thrice with PBS and then imaged in PBS by confocal fluorescence microscopy.
as §1
These attractive features indicate the good potential of using NAIs/NAIAs to trap cellular thiols in live cells that should allow better identification of cysteine oxidative modifications. To explore this potential application, we first sought to capture and image free thiols by NAIA-5 in live HepG2 cells by confocal fluorescence microscopy (FIG. 4A). HepG2 cells were pretreated with solvent vehicles, H2O2 or H2O2+N-acetyl cysteine (NAC), where NAC can scavenge H2O2 and relieve the oxidative stress in the HepG2 cells. After the pretreatment, the cells were incubated with NAIA-5 or IAA (50 μM) for 10 min to ligand and snap-shot free cellular thiols. […]

SMILES	selectivity toward cysteine over other amino acids [1]	labeling of cytosolic and nuclear proteins (colocalization with Hoechst channel) (HepG2 cells [2])	cellular fluorescence intensity (HepG2 cells [2])	cellular permeability (HepG2 cells [2]; inferred from live-cell imaging)	fluorescence from labeling of free thiols, solvent control cells (HepG2 cells [3])	change in cellular fluorescence intensity upon H2O2 pretreatment (HepG2 cells [3])
C#CCCCCNC(=O)COc1ccc2c(ccn2C(=O)C=C)c1 [NAIA-5]	excellent selectivity toward cysteine over other amino acids; also recorded: Significant decreases in NAIA-4 and NAIA-5 levels were only found in the solution mixture with N-acetyl-L-cysteine methyl ester	good labeling of proteins in both cytosol and nucleus	Significantly higher fluorescence intensities were found in cells treated with NAIA-5 than IAA	good cellular permeability	strong fluorescence from NAIA-5 labeling	H2O2 dose-dependent decrease in cellular fluorescence intensity
C#CCCCCNC(=O)CI [IAA, N-Hex-5-ynyl-2-iodoacetamide, reference compound]	undesired reactivity with serine and lysine	lower Manders' colocalization coefficient	much weaker fluorescence at 15 min	–	almost no fluorescence can be detected in IAA-labeled cells	cannot see statistically significant changes in fluorescence intensity
